pIC50: −log10 of the molar value.

Our source for the IC50 values is patent US11713338B2, “Cyclic peptides multimers targeting α-4-β-7 integrin” (priority 2016, dated 2023).

The target of experiment [1] is T1, integrin α4β7 on α4β7+ memory T helper cells (Homo sapiens, UniProt P13612+P26010).
T1 construct: endogenous in cells
T1 sequence (P13612 34-1032): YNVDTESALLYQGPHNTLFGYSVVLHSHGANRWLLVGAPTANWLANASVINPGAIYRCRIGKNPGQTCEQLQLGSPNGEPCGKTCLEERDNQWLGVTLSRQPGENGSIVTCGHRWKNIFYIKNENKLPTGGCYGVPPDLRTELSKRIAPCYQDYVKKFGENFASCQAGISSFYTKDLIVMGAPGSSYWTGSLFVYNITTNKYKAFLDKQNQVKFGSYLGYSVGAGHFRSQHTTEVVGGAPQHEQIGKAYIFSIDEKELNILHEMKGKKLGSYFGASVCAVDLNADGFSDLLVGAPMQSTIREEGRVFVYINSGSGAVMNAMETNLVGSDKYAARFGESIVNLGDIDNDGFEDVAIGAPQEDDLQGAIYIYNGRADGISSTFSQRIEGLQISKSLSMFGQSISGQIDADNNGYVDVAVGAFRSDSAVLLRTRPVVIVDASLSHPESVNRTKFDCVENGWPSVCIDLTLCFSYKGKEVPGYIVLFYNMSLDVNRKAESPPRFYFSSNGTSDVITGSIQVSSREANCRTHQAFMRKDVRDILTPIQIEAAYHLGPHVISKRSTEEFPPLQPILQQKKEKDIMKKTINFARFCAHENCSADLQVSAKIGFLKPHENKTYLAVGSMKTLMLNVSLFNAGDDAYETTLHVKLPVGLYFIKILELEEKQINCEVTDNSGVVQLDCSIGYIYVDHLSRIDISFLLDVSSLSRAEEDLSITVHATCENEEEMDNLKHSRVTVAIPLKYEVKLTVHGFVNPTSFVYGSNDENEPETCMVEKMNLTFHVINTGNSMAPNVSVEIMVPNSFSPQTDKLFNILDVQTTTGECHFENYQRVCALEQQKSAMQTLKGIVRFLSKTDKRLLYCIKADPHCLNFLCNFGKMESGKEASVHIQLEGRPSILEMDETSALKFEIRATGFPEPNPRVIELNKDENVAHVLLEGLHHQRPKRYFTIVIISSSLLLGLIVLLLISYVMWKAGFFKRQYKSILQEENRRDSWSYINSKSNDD
T1 sequence (P26010 20-798): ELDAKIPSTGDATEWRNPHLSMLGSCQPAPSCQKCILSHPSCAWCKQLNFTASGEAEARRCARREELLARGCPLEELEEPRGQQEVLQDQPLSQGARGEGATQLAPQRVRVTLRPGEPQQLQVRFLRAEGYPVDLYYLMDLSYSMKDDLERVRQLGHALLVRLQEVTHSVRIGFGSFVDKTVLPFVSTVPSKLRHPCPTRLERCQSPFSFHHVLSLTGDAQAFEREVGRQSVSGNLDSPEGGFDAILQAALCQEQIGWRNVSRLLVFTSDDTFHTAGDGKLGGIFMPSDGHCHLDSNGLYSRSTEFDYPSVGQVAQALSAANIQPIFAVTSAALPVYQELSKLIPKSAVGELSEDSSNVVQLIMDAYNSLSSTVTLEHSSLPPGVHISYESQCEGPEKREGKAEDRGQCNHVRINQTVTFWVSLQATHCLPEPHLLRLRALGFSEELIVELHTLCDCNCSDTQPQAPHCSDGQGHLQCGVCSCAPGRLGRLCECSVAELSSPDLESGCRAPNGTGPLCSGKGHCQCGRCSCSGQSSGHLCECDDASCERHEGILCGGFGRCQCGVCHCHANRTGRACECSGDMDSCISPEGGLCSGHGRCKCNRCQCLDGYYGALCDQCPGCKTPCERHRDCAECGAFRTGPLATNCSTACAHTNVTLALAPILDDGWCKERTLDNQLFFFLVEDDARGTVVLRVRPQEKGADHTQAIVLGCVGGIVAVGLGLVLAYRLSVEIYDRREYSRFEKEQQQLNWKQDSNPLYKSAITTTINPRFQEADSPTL
The experiment can be described thus: MAdCAM-1 competition / receptor occupancy assay in human whole blood, α4β7-positive Th memory cells. The class given is cell-based. The conditions noted are these: human whole blood, inhibition of MAdCAM-1 binding to α4β7-positive Th memory cells, FACS; read-out: MADCAM FACS α4β7 Th mem. How it is done:
Analyte Competition Assay in CD4+ Integrin α4+β7-Lo Memory T Cells
Receptor occupancy in primary cells was determined by measuring the amount of biotinylated human recombinant MAdCAM-1-FC or human recombinant VCAM-1-Fc bound to selected cell populations using flow cytometry. Human recombinant MAdCAM-1-FC or human recombinant VCAM-1-FC (R&D systems) were biotinylated using commercially available reagents and protocol (Pierce).
Whole blood was collected from human donors in sodium heparin tubes. […] Cells were washed twice with 1 mL of 1X DPBS calcium magnesium free (CMF) (ThermoFisher Scientific) and resuspended in 100 microL of DPBS CMF.
Biotinylated human recombinant MAdCAM-1-Fc or VCAM-1-Fc were added at saturating concentration and incubated at room temperature for 1 hour. […] Cells were washed with 1 mL stain buffer-FBS (BD Biosciences) and resuspended in 100 μl stain Buffer-FBS (BD Biosciences) containing 4 mM MnCl2. […] Cells were then washed with 1 mL stain buffer-FBS and resuspended in […] stain buffer-FBS. The cells were incubated in the dark for 30 minutes at room temperature with 1 ul Streptavidin APC (Biolegend 0.2 mg/ml) and a panel of antibodies for the detection of memory T helper a4b7-positive cells subset. And amount of 5.0 ul each of the following antibodies were used; CD45 FITC (BioLegend 200 ug/ml), CD29 APC Cy7 (BioLegend 100 ug/ml), Integrin beta7 PE, (BioLegend concentration 50 μg/mL), CD49d V421 (BioLegend 50 μg/mL), CD3 V510 (BioLegend 30 μg/mL), CD4 PECy7 (BioLegend 100 μg/mL), CD45RO PerCP, BioLegend 200 μg/mL). The cells were then washed with stain-buffer-FBS and resuspended in 150 microL stain buffer-FBS for acquisition on the flow cytometer (BD FACSCanto™ flow cytometer and BDFACSDiva™ software). FACS data was acquire by electronic gating on the basis of forward versus side scatter, The cytometer was set to collect 20,000 events in each tube. Cell population were determined using the following markers, CD45+, CD3+, CD4+, CD45RO+, CD49d+, integrin b7, biotinylated ligands.
Compound receptor occupancy was defined as the decrease in the number of integrin β7+ or integrin β7-lo cells binding biotinylated rhMAdCAM-1 or rhVCAM-1, respectively.
Receptor occupancy was calculated with the following equation: 100−((% ligand-positive cells with compound/% ligand-positive cells DMSO)*100) In Vivo T Lymphocyte Trafficking Analysis in Mouse Model of Colitis

The target of experiment [2] is T2, integrin α4β7 (RPMI8866 human cells adhering to MAdCAM-1) (Homo sapiens, UniProt P13612+P26010).
T2 construct: RMP18866 cells, which express integrin α4β7; host or cells: RPMI8866
T2 sequence (P13612 34-1032): T1 sequence (P13612 34-1032)
T2 sequence (P26010 20-798): T1 sequence (P26010 20-798)
The experiment can be described thus: Integrin α4β7-MAdCAM cell adhesion assay (RPMI8866 cells). In kind it is cell-based. The conditions noted are these: RPMI8866 cells adhering to MAdCAM; read-out: RPMI8866 Adhesion α4β7/MAdCAM IC50. The essentials: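 RPMI8866 cells were loaded with […] calcein in PBS for 30 min at 37° C. After plate washes with PBS, fluorescence of adherent cells was read, and no-cell control wells were subtracted from each test well to build the dose response.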

Experiment [3] concerns the target T3, recombinant integrin α4β1 (Homo sapiens, UniProt P05556+P13612).
T3 construct: purchased R&D Systems 5397-A3-050
The experiment in a line: Integrin α4β1—VCAM-1 competition ELISA. In kind it is binding. The conditions noted are these: read-out: ELISA α4β1 Assay IC50. A digest of the protocol: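 Compound dilutions added to coated plate and shaken at room temperature for 2 h (300 rpm) to binding equilibrium. Wash buffer: 50 mM Tris, 100 mM NaCl, 1 mM MnCl2, 0.05% Tween. Bound Fc-tagged ligand detected with anti-human IgG Fc-HRP, 1 h at room temperature.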
(In an ELISA, binding on a coated surface is turned into a signal by an enzyme label.)

T3 sequence (P05556 21-728 limits assumed, one chain of several): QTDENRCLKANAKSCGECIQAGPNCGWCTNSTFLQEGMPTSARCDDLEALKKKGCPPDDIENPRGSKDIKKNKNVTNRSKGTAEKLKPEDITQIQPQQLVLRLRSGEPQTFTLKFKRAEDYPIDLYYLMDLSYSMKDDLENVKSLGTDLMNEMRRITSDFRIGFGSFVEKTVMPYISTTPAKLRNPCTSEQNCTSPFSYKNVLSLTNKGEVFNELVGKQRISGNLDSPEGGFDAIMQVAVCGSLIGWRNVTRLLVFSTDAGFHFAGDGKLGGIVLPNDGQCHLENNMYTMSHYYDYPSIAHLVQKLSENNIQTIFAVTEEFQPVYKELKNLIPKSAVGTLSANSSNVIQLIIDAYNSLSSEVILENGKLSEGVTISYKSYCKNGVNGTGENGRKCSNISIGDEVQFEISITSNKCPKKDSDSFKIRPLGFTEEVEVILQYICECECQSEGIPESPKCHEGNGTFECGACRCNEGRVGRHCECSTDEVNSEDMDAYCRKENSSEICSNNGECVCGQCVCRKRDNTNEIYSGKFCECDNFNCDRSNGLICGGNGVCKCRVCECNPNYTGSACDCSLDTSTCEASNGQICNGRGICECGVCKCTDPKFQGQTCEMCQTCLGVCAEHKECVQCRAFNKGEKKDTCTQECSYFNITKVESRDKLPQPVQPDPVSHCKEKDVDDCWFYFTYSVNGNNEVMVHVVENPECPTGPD

Regarding `CC(C)C[C@@H]1NC(=O)c2ccc(-c3ccc(N4CCN(C(=O)C[C@H](N)C(=O)N5CCN(c6ccc(-c7ccc8cc7CNC(=O)[C@@H]7CCCN7[C@H](C(=O)NC(C)(C)C)[C@H](C)NC(=O)[C@H]([C@@H](C)O)NC(=O)[C@H](CC(=O)O)NC(=O)[C@H](CC(C)C)NC8=O)cc6)CC5)CC4)cc3)c(c2)CNC(=O)[C@@H]2CCCN2[C@H](C(=O)NC(C)(C)C)[C@H](C)NC(=O)[C@H]([C@@H](C)O)NC(=O)[C@H](CC(=O)O)NC1=O` [Compound 492], the results for the pIC50 in experiment [1] and in experiment [2] were 6.98 and 7.60, respectively.

With `CC(C)C[C@@H]1NC(=O)c2ccc(-c3ccc(N4CCN(C(=O)CCOCCOCCOCCOCCOCCOCCOCCOCCOCCOCCOCCC(=O)N5CCN(c6ccc(-c7ccc8cc7CNC(=O)[C@@H]7CCCN7[C@H](C(=O)NC(C)(C)C)[C@H](C)NC(=O)[C@H]([C@@H](C)O)NC(=O)[C@H](CC(=O)O)NC(=O)[C@H](CC(C)C)NC8=O)cc6)CC5)CC4)cc3)c(c2)CNC(=O)[C@@H]2CCCN2[C@H](C(=O)NC(C)(C)C)[C@H](C)NC(=O)[C@H]([C@@H](C)O)NC(=O)[C@H](CC(=O)O)NC1=O` [Compound 503], the pIC50 is 6.60 in experiment [1] and 7.35 in experiment [2].

In the case of `CC(C)C[C@@H]1NC(=O)c2ccc(-c3ccc(N4CCN(C(=O)c5ccccc5C(=O)N5CCN(c6ccc(-c7ccc8cc7CNC(=O)[C@@H]7CCCN7[C@H](C(=O)NC(C)(C)C)[C@H](C)NC(=O)[C@H]([C@@H](C)O)NC(=O)[C@H](CC(=O)O)NC(=O)[C@H](CC(C)C)NC8=O)cc6)CC5)CC4)cc3)c(c2)CNC(=O)[C@@H]2CCCN2[C@H](C(=O)NC(C)(C)C)[C@H](C)NC(=O)[C@H]([C@@H](C)O)NC(=O)[C@H](CC(=O)O)NC1=O` [Compound 512], the pIC50 was 7.19 in experiment [1] and 7.60 in experiment [2].

Turning to `CC(C)C[C@@H]1NC(=O)[C@H]2Cc3ccccc3CN2C(=O)[C@H](Cc2cccc(CNC(=O)CCCCCC(=O)NCc3cccc(C[C@@H]4NC(=O)[C@@H]5CCCN5[C@H](C(=O)NC(C)(C)C)[C@H](C)NC(=O)[C@H]([C@@H](C)O)NC(=O)[C@H](CC(=O)O)NC(=O)[C@H](CC(C)C)NC(=O)[C@H]5Cc6ccccc6CN5C4=O)c3)c2)NC(=O)[C@@H]2CCCN2[C@H](C(=O)NC(C)(C)C)[C@H](C)NC(=O)[C@H]([C@@H](C)O)NC(=O)[C@H](CC(=O)O)NC1=O` [Compound 527], the pIC50 was 6.90 in experiment [1], 7.37 in experiment [2] and 8.96 in experiment [3].
